According to PubChem BioAssay (NCI):
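Grown in 96-well plates, cells were treated for 48 hours with each compound at five concentrations. Insufficient inhibition: endpoint recorded as highest concentration tested. At the GI50, growth is halved. TGI denotes the concentration required for complete inhibition of growth.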

What was measured:
Assay in all cases: inhibition of tumour cell growth, NCI panel, 48 h
NCI-H226 lung = system: NCI-H226 lung
HS 578T breast = system: HS 578T breast
M14 melanoma = system: M14 melanoma
CCRF-CEM leukemia = system: CCRF-CEM leukemia
OVCAR-4 ovarian = system: OVCAR-4 ovarian
OVCAR-8 ovarian = system: OVCAR-8 ovarian
HCC-2998 colon = system: HCC-2998 colon
SN12C renal = system: SN12C renal
ACHN renal = system: ACHN renal
COLO 205 colon = system: COLO 205 colon

## Cc1ccnc2c(NC(C)CCCN)cc(O)c(O)c12 (stereo not drawn)
NCI-H226 lung
  GI50: 27.7 µM
  TGI: > 100 µM
HS 578T breast
  GI50: 6.26 µM
  TGI: 43.1 µM
M14 melanoma
  GI50: 29.7 µM
  TGI: > 100 µM
CCRF-CEM leukemia
  GI50: 4.62 µM
  TGI: 29.3 µM
OVCAR-4 ovarian
  GI50: 3.11 µM
  TGI: 10.1 µM
OVCAR-8 ovarian
  GI50: 6.62 µM
  TGI: 82.6 µM
HCC-2998 colon
  GI50: 7.83 µM
  TGI: 32 µM
SN12C renal
  GI50: 2.86 µM
  TGI: 13 µM
ACHN renal
  GI50: > 100 µM
  TGI: > 100 µM
COLO 205 colon
  GI50: 5.15 µM
  TGI: 23.9 µM

## Cc1c(Cl)cccc1NC(=O)c1sc2nc3c(cc2c1N)C(=O)CCC3
NCI-H226 lung
  GI50: 0.102 µM
  TGI: > 37.1 µM
HS 578T breast
  GI50: 0.0479 µM
  TGI: > 58.2 µM
M14 melanoma
  GI50: 0.0655 µM
CCRF-CEM leukemia
  GI50: 0.108 µM
  TGI: > 100 µM
OVCAR-4 ovarian
  GI50: 0.569 µM
  TGI: > 84.7 µM
OVCAR-8 ovarian
  GI50: 0.272 µM
  TGI: > 55.6 µM
HCC-2998 colon
  GI50: 0.201 µM
  TGI: > 60 µM
SN12C renal
  GI50: 0.124 µM
  TGI: > 100 µM
ACHN renal
  GI50: 0.0825 µM
  TGI: > 61.5 µM
COLO 205 colon
  GI50: 0.05 µM
  TGI: 0.344 µM

## O=c1cc(-c2ccccc2)oc2cc(OCCCCCN3CCOCC3)cc(O)c12
NCI-H226 lung
  GI50: > 100 µM
  TGI: > 100 µM
HS 578T breast
  GI50: 41.3 µM
  TGI: > 100 µM
M14 melanoma
  GI50: > 100 µM
  TGI: > 100 µM
CCRF-CEM leukemia
  GI50: 94.5 µM
  TGI: > 100 µM
OVCAR-4 ovarian
  GI50: > 100 µM
  TGI: > 100 µM
OVCAR-8 ovarian
  GI50: 68.2 µM
  TGI: > 100 µM
HCC-2998 colon
  TGI: 8.38 µM
SN12C renal
  GI50: > 100 µM
  TGI: > 100 µM
ACHN renal
  GI50: > 100 µM
  TGI: > 100 µM
COLO 205 colon
  GI50: > 100 µM
  TGI: > 100 µM

## COc1cc2c(NC3CCN(C(C)C)CC3)nc(C3CCCCC3)nc2cc1OCCCN1CCCC1
NCI-H226 lung
  GI50: 12.3 µM
  TGI: 26.9 µM
HS 578T breast
  GI50: 4.11 µM
  TGI: 22.8 µM
M14 melanoma
  GI50: 1.71 µM
  TGI: 3.26 µM
CCRF-CEM leukemia
  GI50: 2.44 µM
  TGI: 6.88 µM
OVCAR-4 ovarian
  GI50: 5.36 µM
  TGI: 15.9 µM
OVCAR-8 ovarian
  GI50: 3.97 µM
  TGI: 15.6 µM
HCC-2998 colon
  GI50: 9.03 µM
  TGI: 27.4 µM
SN12C renal
  GI50: 12 µM
  TGI: 25.1 µM
ACHN renal
  GI50: 10.4 µM
  TGI: 23 µM
COLO 205 colon
  GI50: 1.66 µM
  TGI: 3.1 µM

## O=C(N/N=C/c1cc(Cl)ccc1O)c1ccccc1Nc1ccnc(C(F)(F)F)c1
NCI-H226 lung
  GI50: 0.769 µM
  TGI: 7.71 µM
HS 578T breast
  GI50: 1.15 µM
  TGI: 10.5 µM
M14 melanoma
  GI50: 0.407 µM
  TGI: 2.26 µM
CCRF-CEM leukemia
  GI50: 0.127 µM
  TGI: 1.51 µM
OVCAR-4 ovarian
  GI50: 0.299 µM
  TGI: 35 µM
OVCAR-8 ovarian
  GI50: 0.493 µM
  TGI: 15.5 µM
HCC-2998 colon
  GI50: 0.476 µM
  TGI: 17.1 µM
SN12C renal
  GI50: 1.23 µM
  TGI: 10.2 µM
ACHN renal
  GI50: 0.3 µM
  TGI: 11.2 µM
COLO 205 colon
  GI50: 0.36 µM
  TGI: 13 µM
